Measurements published in patent US10301630B2, “Methods and compositions for unsilencing imprinted genes” (The University of North Carolina at Chapel Hill, priority 2010, dated 2019).

Experiments:
paternal Ube3a-YFP mRNA = assay: Real-time PCR of Ube3a-YFP transcript in cortical neurons; format: cell-based, mouse; conditions: 10 μM for 72 h
Text: Total mRNA was isolated by guanidinium thiocyanate-phenol-chloroform extraction using the Trizol reagent (Invitrogen Inc.). Total mRNAs from samples were converted into cDNA and subjected to real-time PCR (RT-PCR) analyses to quantify Ube3a-YFP transcript levels using oliognucleotide primers against Ube3a (Forward sequence: [NT] (SEQ ID NO:1); reverse sequence: [NT] (SEQ ID NO:2)) and total transcript reads were normalized to Oaz1 (Forward sequence: [NT] (SEQ ID NO:3); reverse sequence: [NT] (SEQ ID NO:4)).

[1] = system: paternal Ube3a allele in brain; assay: Intracerebroventricular delivery, paternal Ube3a in brain; format: in vivo, mouse
Method: In order to unsilence paternal Ube3a in vivo with an emphasis on brain, I.C.V. with osmotic minipump was performed. […] Paternal Ube3a-YFP mice were anesthetized with Ketamine/Xylazine (120 mg/kg; 9 mg/kg) and positioned in a stereotaxic head frame. The scalp is shaved and cut, and the skull exposed. The local anesthetic (Bupivacaine, 2.5 mg/ml) is applied on the top of skull and mineral oil is applied on the eyes of the mice. Acetone is applied on the skull to remove any lipid tissues on the skull as well as to dry the skull surface for optimal adhesion. Next, a cannula (Brain Infusion Kit 1, DURECT Corporation) is positioned into a lateral ventricle at the following coordinates (−0.3 mm A/P, +/−1.0 mm M/L, −3.0 mm D/V). The free end of the cannula is connected to an Alzet osmotic minipump via a 2.5-cm-long piece of polyethylene (PE) tubing (cat. no. 0007750, DURECT Corporation). […] The filled pumps are incubated in sterile saline at 37° C. for at least 4 to 6 hours for priming before being implanted under the dorsal skin of the mouse's back. A needle driver is used to create a subcutaneous pocket in the scapula region to accommodate filled pumps. The cannula base and the attached piece of PE tubing are fixed to the skull with loctite cyanoacrylic. The incision site is closed with prolene suture. During and after surgery, mice are placed on a heating pad. Body weight of mice is recorded daily to assess mouse health. Seven days following minipump implantation, mice are sacrificed following pentobarbital overdose (150 mg/kg, I.P.) and brains are removed for immunofluorescence staining or Western blot analysis.
For immunocytochemistry in brain tissues, mice were perfused with 4% PFA in 0.1M PBS, postfixed overnight, and cryoprotected with 20% sucrose in 0.1M phosphate buffer (PB), pH=7.4 for two days. 60 μm sections were collected and permeabilized with 0.3% Triton X-100 in 0.1M PB for 30 min, and blocked by 5% goat serum for 1 hr. Sections were incubated with rabbit polyclonal antibody to GFP (1:1000, Novus Biologicals, NB600-308) at 4° C. overnight and then incubated with Alexa Fluor 488 goat antibody to rabbit IgG and DAPI for 2 hr at room temperature. Images were acquired using a Zeiss LSM 510 and 710 confocal microscopes.
For optical intensity measurement in selected brain regions, sections were imaged using a Zeiss LSM 510 confocal microscope. With custom macros created using ImageJ software^34, optical intensity of UBE3A-YFP was measured in different regions of hippocampus and striatum from vehicle- and topotecan-treated mice. Image intensity levels were normalized to background intensities from appropriate regions in vehicle-treated mice. Brain sections between Bregma −1.22 mm and −2.06 mm were chosen for analysis (n=5 sections/mouse for hippocampus and n=3 to 5 sections/mouse for striatum).
Mice with paternal Ube3a-YFP (Ube3a^m+/pYFP) were anesthetized with ketamine/xylazine (120 mg/kg; 9 mg/kg) and positioned in a stereotaxic apparatus. The scalp was shaved and cut, and the skull exposed. The local anesthetic (bupivacaine, 2.5 mg/ml) was applied to the skull, and mineral oil was applied to protect the eyes of the mice. Acetone was applied on the skull to remove any lipid tissues on the skull as well as to dry the skull surface for optimal adhesion. Next, a cannula (Brain Infusion Kit 1, DURECT Corporation) was positioned into a lateral ventricle at the following coordinates (−0.3 mm A/P, +1.0 mm M/L, −2.5 mm DN), as described^40. The free end of the cannula was connected to a mini-osmotic pump (Alzet, Model 2001 or 2002) via a 2.5 cm piece of polyethylene (PE) tubing (DURECT Corporation). […] The filled pumps were incubated in sterile saline at 37° C. for at least 4 hr before being implanted under the dorsal skin of the mouse's back. The cannula base and the attached piece of PE tubing were fixed to the skull with Loctite cyanoacrylic 454. The incision site was closed with prolene suture. […]

cultured neurons = assay: Affymetrix GeneChip expression in cultured neurons; format: cell-based
[2] = system: Ube3a, Ube3a-ATS, Snrpn mRNA; assay: Quantitative PCR of Ube3a, Ube3a-ATS and Snrpn in Ube3a m-/p+ neurons; format: cell-based, mouse; conditions: 300 nM, cultured neurons from Ube3a m−/p+ mice
Method: First strand cDNA synthesis was performed on 500 ng-2 μg total RNA using Superscript III reverse transcriptase (Invitrogen) primed with random hexamers. qPCR reactions used SYBR green (Invitrogen) and were run on a Rotorgene 3000 (Corbett Research). Standard curves and Ct-values were generated using Rotorgene analysis software version 6.0. Expression of Ube3a, Ube3a-ATS, Ipw and Snrpn were determined after normalization of each cDNA sample to expression levels of the housekeeping genes Rp122 and Actb.

[3] = system: Ube3a-ATS/Snrpn promoter region; assay: Bisulfite sequencing of the Ube3a-ATS/Snrpn promoter region; format: cell-based, mouse; conditions: 300 nM, 72 h, cortical neurons
Method: Bisulfite conversion was performed on 200 ng genomic DNA using the MethylCode kit (Invitrogen). 1 μL of converted DNA was used as template for PCR. A first round of PCR was performed as described in Peery et al. using the W18 (5′-[…]) (SEQ ID NO:5) and W19 (5′-[…]) (SEQ ID NO:6) or W16 (5′-[…]) (SEQ ID NO:7) and W17 (5′-[…]) (SEQ ID NO:8) primer sets^38. A second semi-nested round of PCR was performed using 1 μL of the primary PCR reaction as template. For semi-nested PCR, the W18 primer was used with the nested W19-inside primer (5′-[…]) (SEQ ID NO:9), or the W16 primer was used with the nested W17-inside primer (5′-[…]) (SEQ ID NO:10). Products were separated on an agarose gel and extracted using the Qiaquick gel extraction kit (Qiagen). Purified DNA was ligated into the pGem-T Easy vector (Promega). Individual clones were amplified and sequenced.

## CCc1c2c(nc3ccc(OC(=O)N4CCC(N5CCCCC5)CC4)cc13)-c1cc3c(c(=O)n1C2)COC(=O)[C@]3(O)CC [Irinotecan]
Paternal Ube3a-YFP mRNA
  paternal Ube3a-YFP mRNA level (RT-PCR): significantly increased the level of paternal Ube3a-YFP mRNA
[1]; i.c.v.
  Ube3a levels in Angelman syndrome model mice: significantly increased Ube3a levels
Cultured neurons
  apoptotic pathways by microarray: no evidence for drug-induced increases in apoptotic pathways

## CC[C@@]1(O)C(=O)OCc2c1cc1n(c2=O)Cc2cc3c(CN(C)C)c(O)ccc3nc2-1 [Topotecan]
[2]
  Ube3a mRNA expression: upregulated expression of Ube3a
  Ube3a-ATS and Snrpn mRNA expression: downregulating expression of Ube3a-ATS and Snrpn
[1]; i.c.v. 3.74 μg/h for two weeks
  mice with robust unsilencing in cerebral cortex near the infused ventricle: two of five mice
  unsilencing of paternal Ube3a, cerebellum: no effect in the cerebellum
  unsilencing of paternal Ube3a, contralateral (non-infused) hemisphere: only a modest effect
[1]; i.c.v. 3.74 μg/h for two weeks, mini-osmotic pump
  unsilencing of paternal Ube3a, infused hemisphere: unsilenced paternal Ube3a in the hippocampus, striatum, and cerebral cortex of the infused hemisphere
[1]; i.c.v. 21.6 μg/h for five days
  unsilencing of paternal Ube3a, cerebellar Purkinje neurons: did unsilence the paternal allele of Ube3a in Purkinje neurons of the cerebellum
[1]; i.c.v. osmotic minipump, one week
  paternal Ube3a-YFP protein in brain after ICV infusion (Example 3): increased paternal Ube3a-YFP protein levels throughout the brain
[3]
  methylation at the imprinting center: did not alter methylation at the imprinting center
